Measured values taken from patent US12221439B2, “Tetrahydropyridopyrimidine derivatives as AhR modulators” (JAGUAHR THERAPEUTICS PTE LTD, priority 2018, dated 2025).

Key:
CYP1A1 = CYP1A1 (Homo sapiens (Human), UniProt P04798); assay: CYP1A1 inhibition assay (Promega P450-Glo, Cypex bactosomes); format: biochemical; details: direct CYP1A1 inhibition, Luciferin-CEE 30 μM, NADPH, 37° C., arithmetic mean of pIC50
Experimental: In Vitro Assay 22: […] Inhibition Assay
The direct CYP1A1 inhibitory activity of test compounds was also assessed using the Promega P450-Glo™ assay system. Seven concentrations of test compound were added to a ½ area white 96 well plate. Cypex […]. bactosomes ([final] 0.5 pmol) and CYPA substrate Luciferin-CEE ([final] 30 μM) were prepared in 0.1M potassium phosphate buffer and incubated with test compounds at 37° C. for 5 minutes. 0.2m NADPH was then added to the plates and incubated at 37° C., for 10 minutes. The reaction was stopped by adding luciferin detection reagent and luminescence was read after 20 minutes.

AhR = AhR (Homo sapiens (Human), UniProt P35869); assay: AhR antagonism in U937 cells (Promega P450-Glo assay); format: cell-based; details: inhibition of agonist (KYNA) response, CYP1A1 activity readout (Luciferin-CEE), 24 hrs, arithmetic mean of pIC50
AhR, sequence (P35869 11-848): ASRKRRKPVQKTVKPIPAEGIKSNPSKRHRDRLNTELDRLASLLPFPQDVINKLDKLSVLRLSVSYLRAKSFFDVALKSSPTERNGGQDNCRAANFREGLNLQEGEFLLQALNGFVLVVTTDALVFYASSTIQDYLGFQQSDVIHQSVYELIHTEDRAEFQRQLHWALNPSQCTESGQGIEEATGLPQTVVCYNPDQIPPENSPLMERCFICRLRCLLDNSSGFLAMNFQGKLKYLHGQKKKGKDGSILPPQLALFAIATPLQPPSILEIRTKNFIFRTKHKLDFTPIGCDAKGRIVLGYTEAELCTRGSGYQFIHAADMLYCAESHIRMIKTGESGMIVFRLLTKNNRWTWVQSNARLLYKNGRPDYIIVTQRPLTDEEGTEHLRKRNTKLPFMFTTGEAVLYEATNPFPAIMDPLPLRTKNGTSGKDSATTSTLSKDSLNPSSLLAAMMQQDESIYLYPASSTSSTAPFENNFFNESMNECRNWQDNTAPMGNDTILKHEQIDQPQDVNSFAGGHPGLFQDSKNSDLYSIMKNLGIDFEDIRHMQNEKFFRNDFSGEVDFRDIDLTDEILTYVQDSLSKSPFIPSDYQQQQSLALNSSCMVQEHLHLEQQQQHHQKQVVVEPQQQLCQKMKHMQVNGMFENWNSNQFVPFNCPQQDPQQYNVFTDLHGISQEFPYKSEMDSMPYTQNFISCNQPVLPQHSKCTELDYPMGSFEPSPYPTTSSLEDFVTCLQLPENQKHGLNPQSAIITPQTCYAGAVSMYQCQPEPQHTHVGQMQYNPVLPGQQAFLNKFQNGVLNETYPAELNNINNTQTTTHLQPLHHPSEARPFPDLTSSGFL
Experimental: Examples were tested in selected biological assays two or more times. Data are reported as the arithmetic mean of the pIC50 (−log10IC50) values, where IC50 is defined as the concentration of compound producing a 50% inhibition of the agonist (KYNA) response.
In Vitro Assay 1: AhR Antagonism in U937 Cells (Promega P450-Glo™ Assay)
AhR antagonism was assessed in U937 cells (myeloid lineage cell line derived from a human histiocytic lymphoma).). Ligand binds the AhR in the cytoplasm, and the AhR-ligand complex translocates to the nucleus and forms a heterodimer with AhR nuclear translocator (Arnt). This complex binds the xenobiotic response element (XRE) in the 5′ upstream region of the CYP1A1 promoter, enhancing CYP1A1 expression. CYP1A1 activity is subsequently determined by assessing the conversion of Luciferin-CEE to luciferin, which in turn reacts with luciferase to produce light. The amount of light produced is directly proportional to cytochrome P450 activity. U937 cells in Ultraculture serum free media (Lonza) were plated at 100,000 cells per well in a round bottom 96 well tissue culture plate. Seven concentrations of test compound (final [DMSO] 1%) were added and incubated for 10 minutes before the addition of […] KYNA. The plates were then placed in an incubator at 37° C., >85% humidity, 5% CO2 for 24 hrs. After aspiration of the supernatant the CYP1A1 substrate Luciferin-CEE ([Final] 83 μM) was added and incubated for 3 hrs before the reaction was stopped by adding luciferin detection reagent and luminescence was read after 20 minutes.

CYP1A1, sequence (P04798 whole entry): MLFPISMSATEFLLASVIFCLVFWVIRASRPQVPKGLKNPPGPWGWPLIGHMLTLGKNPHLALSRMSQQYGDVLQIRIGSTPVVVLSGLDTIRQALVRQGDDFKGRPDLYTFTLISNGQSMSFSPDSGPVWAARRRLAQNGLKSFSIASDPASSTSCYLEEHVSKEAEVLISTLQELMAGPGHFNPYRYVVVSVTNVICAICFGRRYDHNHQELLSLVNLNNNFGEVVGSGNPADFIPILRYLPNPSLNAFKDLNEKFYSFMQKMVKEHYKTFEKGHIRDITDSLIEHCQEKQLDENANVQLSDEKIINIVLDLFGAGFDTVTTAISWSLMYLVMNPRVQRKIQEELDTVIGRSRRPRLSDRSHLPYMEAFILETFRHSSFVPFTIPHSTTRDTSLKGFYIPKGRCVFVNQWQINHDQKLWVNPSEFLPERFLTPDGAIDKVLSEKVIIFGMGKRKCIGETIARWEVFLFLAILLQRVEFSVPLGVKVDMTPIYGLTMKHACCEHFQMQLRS

Compound	cyp1A1 pIC50 (CYP1A1)	IC50 (AhR) [nM]
Cc1cncc(-c2nc3c(c(NCCc4c[nH]c5ccccc45)n2)CNCC3)c1 [Example 26, N-(2-(1H-indol-3-yl)ethyl)-2-(5-methylpyridin-3-yl)-5,6,7,8-tetrahydro pyrido[4,3-d]pyrimidin-4-amine]	7.2	6.17
Clc1cncc(-c2nc3c(c(NCCc4c[nH]c5ccccc45)n2)CNCC3)c1 [Example 27, N-(2-(1H-indol-3-yl)ethyl)-2-(5-chloropyridin-3-yl)-5,6,7,8-tetrahydropyrido[4,3-d]pyrimidin-4-amine]	7.2	4.47
Fc1cncc(-c2nc3c(c(NCCc4nc5ccccc5[nH]4)n2)CNCC3)c1 [Example 28, N-(2-(1H-benzo[d]imidazol-2-yl)ethyl)-2-(5-fluoropyridin-3-yl)-5,6,7,8-tetrahydropyrido[4,3-d]pyrimidin-4-amine]	5.5	> 10000
Fc1cncc(-c2nc3c(c(NCCc4c[nH]c5cc(F)ccc45)n2)CCNC3)c1 [Example 29, N-(2-(6-fluoro-1H-indol-3-yl)ethyl)-2-(5-fluoropyridin-3-yl)-5,6,7,8-tetrahydropyrido[3,4-d]pyrimidin-4-amine]	6.7	7.94
Fc1cncc(-c2nc3c(c(NCCc4c[nH]c5ccc(F)cc45)n2)CCNC3)c1 [Example 30, N-(2-(5-fluoro-1H-indol-3-yl)ethyl)-2-(5-fluoropyridin-3-yl)-5,6,7,8-tetrahydropyrido [3,4-d]pyrimidin-4-amine]	6.5	26.3
Fc1cncc(-c2nc3c(c(NCCc4c[nH]c5cc(F)ccc45)n2)CNCC3)c1 [Example 31, N-(2-(6-fluoro-1H-indol-3-yl)ethyl)-2-(5-fluoropyridin-3-yl)-5,6,7,8-tetrahydropyrido[4,3-d]pyrimidin-4-amine]	7.2	5.13
Fc1cncc(-c2nc3c(c(NCCc4c[nH]c5ccc(F)cc45)n2)CNCC3)c1 [Example 32, N-(2-(5-fluoro-1H-indol-3-yl)ethyl)-2-(5-fluoropyridin-3-yl)-5,6,7,8-tetrahydropyrido[4,3-d]pyrimidin-4-amine]	7.1	6.03
